Assay results published in US7897582B2, “Oligonucleotide compositions and methods for the modulation of the expression of B7 protein” (Isis Pharmaceuticals, Inc., priority 2003, dated 2011).
Strand notation (5' to 3'): a small letter for the sugar, then the base; units joined by * are phosphorothioate-linked, units joined directly phosphodiester-linked; [ ] holds rarer units or linkages, { } end groups; capitals alone tell only the bases. e = 2'-O-(2-methoxyethyl) (MOE); [5mC] = 5-methylcytosine; d = 2'-deoxy (DNA)

Assays:
[1] = test system: DBA/1LacJ mice with collagen-induced arthritis; experiment: Collagen-induced arthritis (CIA) murine model; type: in vivo, mouse; details: CIA in DBA/1LacJ mice; for % Incidence: 10 mg/kg intraperitoneally daily from day -3, control 70%; for Peak day (day from onset of maximum swelling for each joint measure) / Severity (total clinical score divided by the total number of mice in the group): 10 mg/kg intraperitoneally daily; for Peak day (day from onset of maximum swelling for each joint measure): control 6.7 ± 2.9; for Severity (total clinical score divided by the total number of mice in the group): limbs graded 0-4, control 3.2 ± 1.1
Description: Collagen-induced arthritis (CIA) was used as a murine model for arthritis (Mussener, A., et al., Clin. Exp. Immunol., 1997, 107, 485-493). Female DBA/1LacJ mice (Jackson Laboratories, Bar Harbor, Me.) between the ages of 6 and 8 weeks were used to assess the activity of B7-1 antisense oligonucleotides.
On day 0, the mice were immunized at the base of the tail with 100 μg of bovine type II collagen which is emulsified in Complete Freund's Adjuvant (CFA). On day 7, a second booster dose of collagen was administered by the same route. On day 14, the mice were injected subcutaneously with 100 μg of LPS. Oligonucleotide was administered intraperitoneally daily (10 mg/kg bolus) starting on day −3 (three days before day 0) and continuing for the duration of the study. Oligonucleotide 17456 (SEQ ID NO. 173) is a fully phosphorothioated analog of 18122.
Weights were recorded weekly. Mice were inspected daily for the onset of CIA. Paw widths are rear ankle widths of affected and unaffected joints were measured three times a week using a constant tension caliper. Limbs were clinically evaluated and graded on a scale from 0-4 (with 4 being the highest).

murine B7-1 = experiment: Murine B7-1 cell surface expression in transfected COS-7 cells by flow cytometry; type: cell-based; details: mouse B7-1 cell surface expression, basal = 100%
From the text: (§1) Oligonucleotides (see Table 4) capable of inhibiting expression of murine B7-2 transiently expressed in COS-7 cells were identified in the following manner. A series of phosphorothioate oligonucleotides complementary to murine B7-2 (mB7-2) cDNA were screened for their ability to reduce mB7-2 levels (measured by flow cytometry as in Example 2, except that a conjugated anti-mB7-2 antibody (i.e., anti-mCD86-PE, PharMingen, San Diego, Calif.) in COS-7 cells transfected with an mB7-2 cDNA clone. Anti-mB7-2 antibody may also be obtained from the hybridoma deposited at the ATCC under accession No. HB-253. Oligonucleotides (see Table 2) capable of modulating murine B7-1 expression are isolated in like fashion, except that a conjugated anti-mB7-1 antibody is used in conjunction with COS-7 cells transfected with an mB7-1 cDNA clone.
(§2) B7 antisense oligonucleotides were tested for their effect on cell surface expression of both B7-1 and B7-2. Cell surface expression was measured as described in Example 1. Experiments were done for both human B7 and mouse B7.

murine B7-2 (mB7-2) = experiment: Murine B7-2 cell surface expression in transfected COS-7 cells by flow cytometry; type: cell-based, mouse; details: mouse B7-2 cell surface expression
From the text: as §1, §2

Mouse B7-2 mRNA = Mouse B7-2 mRNA expression, screened as in Example 4; type: cell-based; parameters: % mRNA INHIBITION: concentration or dose not given beside the values; details: for % mRNA INHIBITION: screened as in Example 4; for % mRNA EXPRESSION: screened as in Example 4, basal = 100.0%
Description: For ribonuclease protection assays, cells were harvested 18 hours after completion of oligonucleotide treatment using a Totally RNA™ kit (Ambion, Austin, Tex.). The probes for the assay were generated from plasmids pcB7-2 (linearized by digestion with Bgl II) and pTRI-b-actin (Ambion Inc., Austin, Tex.). In vitro transcription of the linearized plasmid from the SP6 promoter was performed in the presence of α-^32P-UTP (800 Ci/mmole) yielding an antisense RNA complementary to the 3′ end of B7-2 (position 1044-1391). The probe was gel-purified after treatment with DNase I to remove DNA template. Ribonuclease protection assays were carried out using an RPA II™ kit (Ambion) according to the manufacturer's directions. Total RNA (5 μg) was hybridized overnight, at 42° C., with 10^5 cpm of the B7-2 probe or a control beta-actin probe. The hybridization reaction was then treated, at 37° C. for 30 minutes, with 0.4 units of RNase A and 2 units of RNase T1. Protected RNA was precipitated, resuspended in 10 μL of gel loading buffer and electrophoresed on a 6% acrylamide gel with 50% w/v urea at 20 W. The gel was then exposed and the lanes quantitated using a PhosphorImager (Molecular Dynamics, Sunnyvale, Calif.) essentially according to the manufacturer's instructions.
Oligonucleotides were screened as described in Example 4.

Mouse B7-1 mRNA = Mouse B7-1 mRNA expression, screened as in Example 4; type: cell-based; parameters: % mRNA INHIBITION: concentration or dose not given beside the values; details: Table 10
[2] = test system: BALB/c mice with heart allograft; experiment: Murine heart allograft rejection model; type: in vivo, mouse
Description: A murine model for evaluating compounds for their ability to inhibit heart allograft rejection has been previously described (Stepkowski et al., J. Immunol., 1994, 153, 5336). This model was used to evaluate the immunosuppressive capacity of antisense oligonucleotides to B7 proteins alone or in combination with antisense oligonucleotides to intercellular adhesion molecule-1 (ICAM-1).
Heart allograft rejection studies and oligonucleotide treatments of BALB/c mice were performed essentially as previously described (Stepkowski et al., J. Immunol., 1994, 153, 5336). Antisense oligonucleotides used included ISIS 11696, ISIS 3082 (targeted to ICAM-1) and ISIS 1082 (a control oligonucleotide targeted to the herpes virus UL-13 gene sequence). Dosages used were 1, 2, 2.5, 5 or 10 mg/kg of individual oligonucleotide (as indicated below); when combinations of oligonucleotides were administered, each oligonucleotide was given at a dosage of 1, 5 or 10 mg/kg (total oligonucleotide dosages of 2, 10 and 20 mg/kg, respectively). The survival times of the transplanted hearts and their hosts were monitored and recorded.

11696 (antisense dG*dG*dA*dT*dT*dG*dC*dC*dA*dA*dG*dC*dC*dC*dA*dT*dG*dG*dT*dG) [compound 11696]
% Incidence [1]: 37.5% | Peak day (day from onset of maximum swelling for each joint measure) [1]: 11.6 ± 4.5 days | Severity (total clinical score divided by the total number of mice in the group) [1]: 3.4 ± 1.8

18089 (antisense eG*eT*e[5mC]*eA*eA*dA*dG*d[5mC]*dT*d[5mC]*dG*dT*dG*d[5mC]*dG*eG*e[5mC]*e[5mC]*e[5mC]*eA) [compound 18089]
% B7-1 EXPRESSION (murine B7-1): 85% | % B7-2 EXPRESSION (murine B7-2 (mB7-2)): 36% | % Incidence [1]: 44.4% | Peak day (day from onset of maximum swelling for each joint measure) [1]: 6.8 ± 2.2 days | Severity (total clinical score divided by the total number of mice in the group) [1]: 2.3 ± 1.3 | % mRNA INHIBITION (Mouse B7-2 mRNA): 79.1% | % mRNA EXPRESSION (Mouse B7-2 mRNA): 20.9%

18097 (antisense eT*eG*e[5mC]*e[5mC]*eA*dA*dG*d[5mC]*d[5mC]*d[5mC]*dA*dT*dG*dG*dT*eG*e[5mC]*eA*eT*e[5mC]) [compound 18097]
% B7-1 EXPRESSION (murine B7-1): 87% | % B7-2 EXPRESSION (murine B7-2 (mB7-2)): 28% | % mRNA INHIBITION (Mouse B7-2 mRNA): 75.5% | % mRNA EXPRESSION (Mouse B7-2 mRNA): 24.5%

18110 (antisense eA*eT*eG*eA*eG*dG*dA*dG*dA*dG*dT*dT*dG*dT*dA*eA*e[5mC]*eG*eG*e[5mC]) [compound 18110]
% B7-1 EXPRESSION (murine B7-1): 31% | % B7-2 EXPRESSION (murine B7-2 (mB7-2)): 93% | % mRNA EXPRESSION (Mouse B7-1 mRNA): 21.0% | % mRNA INHIBITION (Mouse B7-1 mRNA): 79.0% | % Incidence [1]: 55.6% | Peak day (day from onset of maximum swelling for each joint measure) [1]: 2.0 ± 0.8 days | Severity (total clinical score divided by the total number of mice in the group) [1]: 2.0 ± 1.3

18112 (antisense eG*e[5mC]*eA*eG*eG*dT*dA*dA*dT*d[5mC]*d[5mC]*dT*dT*dT*dT*eA*eG*eT*eG*eT) [compound 18112]
% mRNA EXPRESSION (Mouse B7-1 mRNA): 42.0% | % mRNA INHIBITION (Mouse B7-1 mRNA): 58.0%

18113 (antisense eG*eT*eG*eA*eA*dG*dT*d[5mC]*d[5mC]*dT*d[5mC]*dT*dG*dA*d[5mC]*eA*e[5mC]*eG*eT*eG) [compound 18113]
% B7-1 EXPRESSION (murine B7-1): 25% | % B7-2 EXPRESSION (murine B7-2 (mB7-2)): 91% | % mRNA EXPRESSION (Mouse B7-1 mRNA): 24.6% | % mRNA INHIBITION (Mouse B7-1 mRNA): 75.4%

18114 (antisense e[5mC]*eG*eA*eA*eT*d[5mC]*d[5mC]*dT*dG*d[5mC]*d[5mC]*d[5mC]*d[5mC]*dA*dA*eA*eG*eA*eG*e[5mC]) [compound 18114]
% mRNA EXPRESSION (Mouse B7-1 mRNA): 25.6% | % mRNA INHIBITION (Mouse B7-1 mRNA): 74.4%

18115 (antisense eA*e[5mC]*eT*eG*e[5mC]*dG*d[5mC]*d[5mC]*dG*dA*dA*dT*d[5mC]*d[5mC]*dT*eG*e[5mC]*e[5mC]*e[5mC]*e[5mC]) [compound 18115]
% mRNA EXPRESSION (Mouse B7-1 mRNA): 33.5% | % mRNA INHIBITION (Mouse B7-1 mRNA): 66.5%

18116 (antisense eT*eT*eG*eA*eT*dG*dA*dT*dG*dA*d[5mC]*dA*dA*d[5mC]*dG*eA*eT*eG*eA*e[5mC]) [compound 18116]
% mRNA EXPRESSION (Mouse B7-1 mRNA): 65.6% | % mRNA INHIBITION (Mouse B7-1 mRNA): 34.4%

18117 (antisense e[5mC]*eT*eG*eT*eT*dG*dT*dT*dT*dG*dT*dT*dT*d[5mC]*dT*e[5mC]*eT*eG*e[5mC]*eT) [compound 18117]
% mRNA EXPRESSION (Mouse B7-1 mRNA): 46.7% | % mRNA INHIBITION (Mouse B7-1 mRNA): 53.3%

18118 (antisense eT*eG*eT*eT*e[5mC]*dA*dG*d[5mC]*dT*dA*dA*dT*dG*d[5mC]*dT*eT*e[5mC]*eT*eT*e[5mC]) [compound 18118]
% mRNA EXPRESSION (Mouse B7-1 mRNA): 31.7% | % mRNA INHIBITION (Mouse B7-1 mRNA): 68.3%

18119 (antisense eG*eT*eT*eA*eA*d[5mC]*dT*d[5mC]*dT*dA*dT*d[5mC]*dT*dT*dG*eT*eG*eT*e[5mC]*eA) [compound 18119]
% B7-1 EXPRESSION (murine B7-1): 27% | % B7-2 EXPRESSION (murine B7-2 (mB7-2)): 98% | % mRNA EXPRESSION (Mouse B7-1 mRNA): 24.0% | % mRNA INHIBITION (Mouse B7-1 mRNA): 76.0%

18120 (antisense eT*e[5mC]*e[5mC]*eA*e[5mC]*dT*dT*d[5mC]*dA*dG*dT*d[5mC]*dA*dT*d[5mC]*eA*eA*eG*e[5mC]*eA) [compound 18120]
% mRNA EXPRESSION (Mouse B7-1 mRNA): 26.7% | % mRNA INHIBITION (Mouse B7-1 mRNA): 73.3%

18121 (antisense eT*eG*e[5mC]*eT*e[5mC]*dA*dA*dT*dA*d[5mC]*dT*d[5mC]*dT*d[5mC]*dT*eT*eT*eT*eT*eA) [compound 18121]
% mRNA EXPRESSION (Mouse B7-1 mRNA): 114.0%

18122 (antisense eA*eG*eG*e[5mC]*e[5mC]*d[5mC]*dA*dG*d[5mC]*dA*dA*dA*d[5mC]*dT*dT*eG*e[5mC]*e[5mC]*e[5mC]*eG) [compound 18122]
% mRNA EXPRESSION (Mouse B7-1 mRNA): 42.0% | % mRNA INHIBITION (Mouse B7-1 mRNA): 58.0%

18123 (antisense eA*eA*e[5mC]*eG*eG*d[5mC]*dA*dA*dG*dG*d[5mC]*dA*dG*d[5mC]*dA*eA*eT*eA*e[5mC]*e[5mC]) [compound 18123]
% mRNA EXPRESSION (Mouse B7-1 mRNA): 42.0% | % mRNA INHIBITION (Mouse B7-1 mRNA): 58.0%

ISIS 1082: control oligonucleotide targeted to the herpes virus UL-13 gene sequence; SEQ ID NO: 102 (125) (antisense GCCGAGGTCCATGTCGTACGC; listed as DNA, chemistry not given here)
mean survival time ([2]; 5 mg/kg/day for 7 days): 7.1 ± 0.7 days | mean survival time ([2]; 10 mg/kg/day for 7 days): 7.0 ± 0.8 days

ISIS 3082: ICAM-1 oligonucleotide, previously described (Stepkowski et al.); SEQ ID NO: 101 (antisense TGCATCCCCCAGGCCACCAT; listed as DNA, chemistry not given here)
mean survival time ([2]; 1 mg/kg/day for 7 days): 11.0 ± 0.0 days | mean survival time ([2]; 2.5 mg/kg/day for 7 days): 12.0 ± 2.7 days | mean survival time ([2]; 5 mg/kg/day for 7 days): 14.1 ± 2.7 days | mean survival time ([2]; 10 mg/kg/day for 7 days): 15.3 ± 5.8 days
